Assay results reported in patent publication US10391201B2, “Gene therapy” (Ospedale San Raffaele S.r.l., priority 2014, dated 2019).

What was measured:
[1] = tested on: cord blood (CB)-derived CD34+ cells; format: cell-based, human; conditions: CB-derived CD34+ HSPC; MOI 1; 20 μm FK506, 5 mM 3-MA alone or with 10 μM CsA / 10 μg/mL rapamycin
Method: (§1) Human CB and BM-derived haematopoietic stem/progenitor cells (HSPC) were cultured in serum-free StemSpan medium (StemCell Technologies) supplemented with 100 ng/mL recombinant human stem cell factor (rhSCF), 20 ng/mL recombinant human thrombopoietin (rhTPO), 100 ng/mL recombinant human Flt3 ligand (rhFlt3) and 20 ng/mL recombinant human IL6 (rhIL6) (all from Peprotech) 16 to 24 hours prior to transduction. HSPC were then transduced at a concentration of 1×10^6 cells per mL with vesicular stomatitis virus glycoprotein (VSV-G)-pseudotyped SINLV for 20 hours at the indicated multiplicity of infection (MOI) in the same medium. After transduction, cells were washed and maintained serum-free StemSpan supplemented with cytokines as above until the reading of GFP-positive (GFP+) cells by FACS. After FACS they were maintained in Roswell Park Memorial Institute medium (RPMI, Lonza) supplemented with 10% FBS, 25 ng/mL rhSCF, 5 ng/mL rhIL6, 25 ng/mL rhFlt3 and 5 ng/mL rhTPO for another seven days before analysis of vector copy numbers. MDM were transduced 7 days after differentiation. T lymphocytes were transduced at a concentration of 10^6 cells per mL, after 3 days of stimulation. All the cells were exposed to the vector for 16-20 hours.
(§2) They were added to the transduction medium at the indicated concentration and washed out with the vector 16-20 hours later.
(§3) GFP expression in transduced cells was measured 5-7 days post-transduction. Adherent MDM were detached by scraping in 5 mM PBS-EDTA, washed and resuspended in PBS containing 2% FBS. Cells grown in suspension were washed and resuspended in PBS containing 2% FBS. To exclude dead cells from the analysis, 10 ng/mL 7-aminoactinomycin D (7-AAD) was added.
(§4) DNA from cell cultures was extracted using a Maxwell 16 instrument (Promega) or Blood & Cell Culture DNA Micro Kit (Qiagen). To amplify the vector sequence, primers and probes complementary to the vector Rev responsive element sequence were used. Vector copy numbers and replication intermediates were normalised to genomic DNA content, which was assessed using the human TERT gene. Quantitative polymerase chain reaction (qPCR) primers and probe sequences and conditions were previously described (Santoni de Sio, F. R. et al (2006) Blood 107: 4257-65).

[2] = tested on: bone marrow (BM)-derived CD34+ cells; format: cell-based, human; conditions: BM-derived CD34+ HSPC; MOI 1; 20 μm FK506, 5 mM 3-MA alone or with 10 μM CsA / 10 μg/mL rapamycin
Method: as §1, §2, §3, §4

Cn1cnc(N)c2ncnc1-2 [3-MA, 3-methyladenine]
impact on LV transduction efficiency (in words) [1]: little or no effect
impact on LV transduction efficiency (in words) [2]: little or no effect
